Legend:
[1] = test system: isolated ileum of an experimental animal; experiment: Anaphylactic contraction of isolated ileum induced by antigen (ovoalbumin); settings: antigen (10 μg/ml), average ±SEM, at least 3 animals; read-out: Stimulation with antigen IC50
Description: (§1) Female and male experimental animals were used, weighing between 300 and 400 g, they came from Oswaldo Cruz Foundation's Center of Laboratory Animal Raising. The procedures involving the animals were examined and approved by Oswaldo Cruz Foundation's Committee of Animal Ethics (CEUA-FIOCRUZ, Licenca no. 00085-02). The animals were sensitized through a subcutanous injection with a mixture of 50 μg ovoalbumin and 5 mg Al(OH)3. From fourteen to thirty days after the sensitization, the experimental, animal was sacrificed in a chamber of carbonic gas to have its abdomen open and the location of the ileocecal valve. At this point, the intestine was sectioned and a segment of the small intestine, about 20 cm (equivalent to the ileum) was carefully removed and internally washed with a warmed solution (37° C.) of Tyrode (Composition in mM) (NaCl 137; KCl 2.7; NaH2PO4 0.42; NaHCO3 11.9; MgCl2 0.5; CaCl2 1.8; glucose 5.6) to remove the fecal content. […].
(§2) About 3-cm ileum fragments were vertically mounted in 10 ml glass cuvettes, immersed in Tyrode's solution at 37° C., aerated with carbogen (O2, 95% and CO2, 5%) and supplemented with atropine according to the standard procedure. The tissue had one of its ends tied to a rod while the other end was coupled with a transductor after the transference from the rod to the cuvette. The contractions were isotonically registered (basal tension of 1 g) with the support of a transductor of displacement-force connected to a computerized system to capture data. After a 30 minute period of balance, each segment was repeatedly stimulated by histamine (1 μM) until response stabilization. To induce anaphylatic contraction, ileum segments from sensitized experimental animals were stimulated by ovoalbumin (10 μg/ml). […]. The results were presented as a percentage of inhibition calculated in relation to the contractive effect obtained from stimulated and non-treated preparations.
(§3) Concentration-response data were adjusted through non-linear regression curves with the assistence of a graphics software (GraphPad Prism, USA). The concentration of an antagonist needed to inhibit the contractive response to inhibit the contractive response after stimulation by histamine or antigen at 50% (IC50) was used to compare the anti-spasmodic potency. The values expressed as an average ± standard error of the mean and statistically analysed through the test of analysis variance (ANOVA), followed by the Newman-Keuls-Student test.

[2] = test system: isolated ileum of an experimental animal; experiment: Contraction of isolated ileum induced by histamine; settings: histamine (5 μM), average ±SEM, at least 3 animals; read-out: Stimulation with histamine IC50
Description: as §1, §2, §3

[3] = test system: dorsal subcutaneous tissue of rats; experiment: Anaphylactic release of histamine by fragments of dorsal subcutaneous tissue; parameters: species or system Wistar rats; settings: for IC50: 60 min pre-treatment, read-out: IC50, inhibition of histamine release caused by anaphylatic stimulus
Description: Female and male Wistar rats were used, weighing between 180 and 200 g, they came from Oswaldo Cruz Foundation's Center of Laboratory Animal Raising. The procedures involving the animals were examined and approved by Oswaldo Cruz Foundation's Committee of Animal Ethics (CEUA-FIOCRUZ, Port. 00085-02). The rats were sensitized with a subcutaneous injection containing a mixture of 50 μg ovalbumina plus 5 mg Al(OH)3. Fourteen days after the sensitization the animals were sacrificed in a chamber of CO2, to have their dorsal hypodermis removed which was fragmented into smaller segments of about 3 mm in a Petri dish containing PBS. The fragments were individually transferred to a dish with 48 pools containing 500 μl of Hanks with Ca^++ and Mg^++.
Five experimental groups were studied in quadruplicates:
I. Saline group, negative control, pools where the tissue was neither treated nor stimulated;
II. Ovoalbumin group, positive control, pools where the tissue was not treated but it was stimulated by ovoalbumin (300 μg/ml);
III. JM24-1 group, pools where the tissue was previously treated with JM24-1 before the stimulation with ovoalbumin (300 μg/ml);
IV. JM25-1 group, pools where the tissue was previously treated with JM25-1 before the stimulation with ovoalbumin (300 μg/ml);
V. JMF2-1 group, pools where the tissue was previously treated with JMF2-1 before the stimulation with ovoalbumin (300 μg/ml).
Treated and non-treated pools were kept at 37° C. in a metabolic incubator (atmosphere containing 95% O2 and 5% CO2) for 60 minutes before the antigenic challenge. After the addition of ovoalbumin (300 μg/ml) all the pools were incubated again in a metabolic oven for more than 60 minutes. After removal of tissue for drying and weighing, the culture medium was collected and acidified with perchloric acid 0.4 N being, after centrifugation 150×g for 10 min. stocked at −20° C. until the moment of fluorimetric quantifying of histamine, according to the previous work. The values were shown like nanograms of released histamine by mg of tissue (dry weight).

[4] = test system: cutaneous sites of the dorsal region of adult Wistar rats; experiment: Local anesthetic activity, intradermal injection in dorsal skin, response to mechanical stimulation; type: in vivo; settings: for time of anesthesia compared with lidocaine: doses from 0.5 to 4 μMol/site
Description: Female and male Wistar rats, weighing between 200 and 250 g, they came from Oswaldo Cruz Foundation's Center of Laboratory Animal Raising were used. The procedures involving the animals were examined and approved by Oswaldo Cruz Foundation's Committee of Animal Ethics (CEUA-FIOCRUZ, License number 00085-02). After brief anesthesia by exposure to the atmosphere enriched with […] animals were trichotomized dorsal region, where the […] injections with substances for test were performed; doses varied from 0.5 to 4 μMol/site, and vehicule (NaCl 0.9%) (negative control), the final volume was 50 μl. Each animal took six injections and four animals were used for each tested substance. The application points were mechanically estimulated with a tweezer in order to evaluate the integrity of sensitiveness. The site was considered not to be anesthesized whenever after the mechanical stimulation it was observed a local retraction of the skin, according to what had been previously reported. The evaluations began 10 minutes after intradermal injections had been taken, which continued every five minutes until it was obtained the cutaneous retraction response. The values (average±standard error of the mean, SEM) were expressed in terms of “Time of Anesthesia” in minutes.

[5] = test system: experimental animal trachea; experiment: Relaxation of trachea pre-contracted by anaphylactic stimulation (ovoalbumin); settings: pre-contracted with ovoalbumin (20 μg/ml), average±SEM, at least 3 animals; read-out: IC50, concentration necessary to relax in 50% the anaphylatic spasm of trachea
Description: Female and male experimental animals were used, weighing between 300 and 400 g, they came from Oswaldo Cruz Foundation's Center of Laboratory Animal Raising. The procedures involving the animals were examined and approved by Oswaldo Cruz Foundation's Committee of Animal Ethics (CEUA-FIOCRUZ, License number 00085-02). The animals were sensitized through a subcutaneous injection with a mixture of 50 μg ovoalbumin and 5 mg Al(OH)3. Fourteen to thirty days after the sensitization, the experimental animal was sacrificed in a chamber of carbonic gas to have its trachea removed. The trachea was transferred to a Petri dish containing Krebs solution (composition in mM) (NaCl-119; […] NaHCO3-25; […] The total segment was divided into fragments of about 3 to 4 rings that were sectioned at the extreme ending, the muscular part of the trachea. Each fragment had one of its ends tied to a rod while the other end was connected to an isometric transductor (U Basile, Italy) after the transference from the rod to a 10 ml glass cuvette. […] The contractions were registered with the […] of a computerized system of data capture (Letica, Spain). […] The results were shown as a percentage of relaxation in relation to the plateau of the anaphylatic pre-contraction. Concentration-response data were adjusted through non-linear regression curves with the […] of a graphics software (GraphPad Prism, USA). […] The values were expressed as an average± standard error of the mean and statistically analysed through the test of analysis variance (ANOVA), followed by the Newman-Keuls-Student test.

[6] = test system: Na^+ currents in GH3 cells; experiment: Tonic block of Na+ currents in GH3 cells, whole cell patch clamp; type: cell-based, Rat
Description: Ion channel currents were recorded by means of a patch clamp technique. The cells cultured on the cover glass were placed in a chamber fixed to a microscope stage and continuously perfused with extracellular Saline (A) solution (in mM); 150 NaCl, 5 KCl, 1 MgCl2, 0.01 CaCl2, 1 EGTA, 10 HEPES, 2 BaCl2, 0.1 CdCl2, pH 7.4 at room temperature (22-25° C.) adjusted with NaOH. The cells were observed using phase contrast mode under an inverted microscope (Axiovert 100, Carl Zeiss, Oberkochem, D Germany). Tight-seal (>10 GΩ) whole cell voltage-clamp recordings were performed with an Axopatch-1D amplifier (Axon Instruments, San Mateo, Calif.). […] Fifteen minutes after rupture of the patch membrane, we started to record ion channel currents. Pulse protocols and data acquisition were controlled by Digidata 1320 interface (Axon Instruments, Palo Alto, Calif.), and acquired on a personal computer using Clampex 9 software. The Na^+ current recordings were filtered at 1 kHz and sampled at 8 kHz. About 26% of series resistance was electronically compensated. Drugs were applied to the recording chamber by gravity. Perfusion rate was maintained at 0.8-1.1 ml/min and bath volume was of 50 μl. […] Voltage-gated Na^+ currents were recorded from these cells in the presence or absence of treatment.

[7] = test system: sensitized experimental animals; experiment: Pulmonary eosinophil infiltrate after ovoalbumin aerosol challenge, bronchoalveolar lavage count; type: in vivo; settings: 5% aerosol, 30 min, with ovoalbumin 1% plus 3 aerosolizations every 3 h; lavage 24 h after challenge
Description: The animals were sensitized through a cutaneous injection of a mixture with 50 μg ovoalbumin and 5 mg Al(OH)3, and challenged with ovoalbumin (1%) aerosol for 30 min 14 days afterwards, according to what was previously described. In order to avoid death of animals by anaphylatic asphyxia, all of them were treated intraperitonially with the anti-histaminic difenidramine (30 mg/kg) 30 minutes before being challenged.
Bronchoalveolar Lavage and Eosinophils Counting
All the animals were anesthesized terminally through an intraperitonial injection of pentobarbital (200 mg/kg) 24 h after the antigenic challenge, to wash the bronchoalveolar space according to the techniques previously described. Total leukocyte count were done after dilution of bronchoalveolar lavage samples in Turk liquid and counting in the Neubauer chamber with the assistance of direct-light microscopy. The differential eosinophil count was done also under direct-light microscopy, after centrifugation of samples of the lavage as well as its exposure to specific dyestuff (May-Grunwald-Giemsa dye).
The averages± standard error of the mean of the groups investigated were analyzed based on statistics through the test of variance analysis (ANOVA), followed by the Newman-Keuls-Student test.
Values, expressed in terms of “number of eosinophils×10^6/lavage” are presented as average±SEM in at least 7 animals. In the negative control group, animals previously sensitized were artificially-challenged through exposure to sterile saline (NaCl, 0.9%) aerosol. […] “*” represents the difference statistically significant (P<0.05), when the group treated and the positive control group were compared.

Swiss 44 mice = experiment: Convulsivant activity after intraperitoneal injection; type: in vivo; settings: mouse, in vivo, ip
Description: Female and male Swiss 44 mice were used, weighing between 25 and 30 g, they came from Oswaldo Cruz Foundation's Center of Laboratory Animal Raising. The procedures involving the animals were examined and approved by Oswaldo Cruz Foundation's Committee of Animal Ethics (CEUA-FIOCRUZ, Act 00085-02). […] For each molecule, the necessary dose to induce a convulsive clinical Figure in 50% of the animals (DE50) was determined by linear regressive curves interpoled (GraphPad Prim, version 3.03).

patients = settings: cited from earlier work

SMILES | IC50 [1] | IC50 [2] | inhibition of anaphylactic histamine release, result in words ([3]; ovoalbumin (300 μg/ml)) | IC50 ([3]; ovoalbumin (300 μg/ml)) | time of anesthesia compared with lidocaine [4] | IC50 [5] | times more potent than lidocaine, histamine release ([3]; ratio to lidocaine) | IC50 ([6]; GH3 cells, holding potential −80 mV to +60 mV step pulse, read-out: IC50, blockade of Na+ currents) | 50% inhibitory concentration, times higher than lidocaine ([6]; ratio to lidocaine IC50) | Time of Anesthesia ([4]; 4 μMol/site intradermal, n=4, average±SEM) | blocking the accumulation of eosinophils in the bronchoalveolar area [7] | DE50, dose to induce convulsion in 50% of the animals (Swiss 44 mice) | attenuation of bronchospasm by histamine (patients)
CCN(CC)CC(=O)Nc1cc(C)ccc1C [JM25-1, 2-dyethylamine-2′,5′-acetoxylidide] | 120 ± 10 µM | 140 ± 20 µM | concentrations comparable to that of lidocaine | 8.35 µM | significantly inferior | 130 ± 20 µM | – | – | – | – | – | – | –
CCN(CC)CC(=O)Nc1ccccc1C(F)(F)F [JMF2-1, 2-dyethylamine-2-trifluormetilacetotoluidide] | – | 100 ± 10 µM | – | 0.16 µM | significantly inferior | – | about 29 times | 25.4 mM | 169 times | 28 ± 1 min | equipotent to lidocaine | 305 mg/kg | –
CCCCOc1ccc(C(=O)CCN2CCCCC2)cc1 [dyclonine] | – | – | – | – | – | – | – | – | – | – | – | – | ineffective

— patent publication US8163803B2 (Fundação Oswaldo Cruz—FIOCRUZ, priority 2004, dated 2012)
